Measured values taken from ChEMBL document CHEMBL1141104, “Glycodiversification for the optimization of the kanamycin class aminoglycosides” (2005).
≈ marks a conversion by molar mass, not a printed value. Calls of active or inactive are those of the source. The rule behind the calls is not given here.

Columns and labels:
Staphylococcus aureus [1] = assay: Minimum inhibitory concentration against Staphylococcus aureus (ATCC 25923); inactive; assay type: functional, organism-based
Escherichia coli [2] = assay: Minimum inhibitory concentration against Escherichia coli (ATCC 25922); inactive; assay type: functional, organism-based
Escherichia coli [3] = assay: Minimum inhibitory concentration against Escherichia coli (ATCC 25922); assay type: functional
Staphylococcus aureus [4] = assay: Minimum inhibitory concentration against Staphylococcus aureus (ATCC 25923); assay type: functional
[5] = Escherichia coli, ATCC 25922, read-out: MIC
[6] = Staphylococcus aureus, ATCC 25923, read-out: MIC

SMILES	MIC (Staphylococcus aureus [1])	MIC (Escherichia coli [2])	MIC (Escherichia coli [3]; [5]) [µg/mL]	MIC (Staphylococcus aureus [4]; [6]) [µg/mL]	MIC (Escherichia coli [3]) [µg/mL]	MIC (Staphylococcus aureus [4]) [µg/mL]
CC1OC(OC2C(N)CC(N)C(OC3OC(CN)C(O)C(O)C3N)C2O)C(O)C(O)C1O (stereo in doubt; 23)	inactive	inactive	–	–	–	–
CC1OC(OC2C(N)CC(N)C(OC3OC(CN)C(O)C(O)C3N)C2O)C(O)C(O)C1O (stereo in doubt) [listing 1 of 2 here]	–	–	32 (≈ 68.3 µM)	16 (≈ 34.2 µM)	–	–
CC1OC(OC2C(N)CC(N)C(OC3OC(CN)C(O)C(O)C3N)C2O)C(O)C(O)C1OC[C@@H](O)CN (some centres undefined)	–	–	4 (≈ 7.39 µM)	4 (≈ 7.39 µM)	–	–
CC1OC(OC2C(N)CC(N)C(OC3OC(CN)C(O)C(O)C3N)C2O)C(O)C(O)C1OC[C@@H](N)CN (some centres undefined)	–	–	8 (≈ 14.8 µM)	8 (≈ 14.8 µM)	–	–
CC1OC(OC2C(N)CC(N)C(OC3OC(CN)C(O)C(O)C3N)C2O)C(O)C(O)C1OC[C@H](O)CN (some centres undefined)	–	–	4 (≈ 7.39 µM)	4 (≈ 7.39 µM)	–	–
CC1OC(OC2C(N)CC(N)C(OC3OC(CN)C(O)C(O)C3N)C2O)C(O)C(O)C1O (stereo in doubt) [listing 2 of 2 here]	inactive	inactive	–	–	–	–
NC[C@H]1O[C@H](O[C@H]2[C@H](O)[C@@H](O[C@H]3O[C@H](CO)[C@@H](O)[C@H](N)[C@H]3O)[C@H](N)C[C@@H]2N)[C@H](N)[C@@H](O)[C@@H]1O [BEKANAMYCIN]	–	–	2 (≈ 4.14 µM)	2 (≈ 4.14 µM)	4 (≈ 8.27 µM)	1 (≈ 2.07 µM)
CC1OC(OC2C(N)CC(N)C(OC3OC(CN)C(O)C(O)C3N)C2O)C(O)C(O)C1N (centres undefined)	–	–	12 (≈ 25.7 µM)	2 (≈ 4.28 µM)	–	–
CC1OC(OC2C(N)CC(N)C(OC3OC(CN)C(O)C(O)C3N)C2O)C(O)C(O)C1OC[C@H](N)CN (some centres undefined)	–	–	8 (≈ 14.8 µM)	8 (≈ 14.8 µM)	–	–
CC1OC(OC2C(N)CC(N)C(OC3OC(CN)C(O)C(O)C3N)C2O)C(O)C(O)C1OCC(CN)OC[C@H](O)CN (some centres undefined)	–	–	8 (≈ 13 µM)	4 (≈ 6.51 µM)	–	–
NC[C@@H]1O[C@H](O[C@H]2[C@H](O)[C@H](O[C@H]3O[C@H](CO)[C@H](O)[C@@H](O)[C@H]3O)[C@H](N)C[C@H]2N)[C@@H](N)[C@@H](O)[C@@H]1O	–	–	32 (≈ 66 µM)	32 (≈ 66 µM)	–	–
CC1OC(OC2C(N)CC(N)C(OC3OC(CN)C(O)C(O)C3N)C2O)C(O)C(O)C1OCCCN (centres undefined)	–	–	4 (≈ 7.61 µM)	4 (≈ 7.61 µM)	–	–
NCC1OC(OC2C(N)CC(N)C(OC3OCC(O)C(O)C3O)C2O)C(N)C(O)C1O (centres undefined)	–	–	32 (≈ 70.4 µM)	64 (≈ 141 µM)	–	–
CC1CC(O)C(O)C(OC2C(N)CC(N)C(OC3OC(CN)C(O)C(O)C3N)C2O)O1 (centres undefined)	inactive	inactive	–	–	–	–
CC1OC(OC2C(N)CC(N)C(OC3OC(CN)C(O)C(O)C3N)C2O)C(O)C(N)C1O (centres undefined)	–	–	2 (≈ 4.28 µM)	2 (≈ 4.28 µM)	–	–
CC1OC(OC2C(N)CC(N)C(OC3OC(CN)C(O)C(O)C3N)C2O)C(O)C(N)C1OCC(O)CN (centres undefined)	–	–	4 (≈ 7.4 µM)	2 (≈ 3.7 µM)	–	–
